According to the supplement of paper PMC10307832:

Tests used:
Assay in all cases: relative viability (nuclei count vs DMSO), 5 days (fraction); higher = more cells survive
[1] = test system: NCI-H2228
How it was run: (§1)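 Lung cancer cell lines in 1536-well plates were dosed by pin tool the day after seeding, either with one drug alone or with a fixed anchor-drug dose plus five library-drug doses (not always all listed) in √10 steps. After 5 days, cells were fixed and their nuclei stained in one step (final 0.05% Triton X-100, 1% formaldehyde, 1 ug/ml Hoechst), then counted on 4× images. Relative viability is the nuclei count in treated wells divided by that in vehicle wells. Values are medians of duplicate plates.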

[2] = test system: NCI-H2170
How it was run: as §1

[3] = test system: NCI-H1792
How it was run: as §1

[4] = test system: NCI-H2009
How it was run: as §1

[5] = test system: NCI-H1734
How it was run: as §1

[6] = test system: EKVX
How it was run: as §1

[7] = test system: NCI-H596
How it was run: as §1

[8] = test system: NCI-H2342
How it was run: as §1

[9] = test system: NCI-H2405
How it was run: as §1

[10] = test system: HARA
How it was run: as §1

[11] = test system: NCI-H647
How it was run: as §1

[12] = test system: NCI-H2087
How it was run: as §1

[13] = test system: LOU-NH91
How it was run: as §1

[14] = test system: NCI-H1395
How it was run: as §1

[15] = test system: NCI-H1355
How it was run: as §1

[16] = test system: BEN
How it was run: as §1

[17] = test system: SK-MES-1
How it was run: as §1

[18] = test system: SK-LU-1
How it was run: as §1

[19] = test system: LC-2-ad
How it was run: as §1

[20] = test system: NCI-H1437
How it was run: as §1

[21] = test system: NCI-H661
How it was run: as §1

[22] = test system: HCC-44
How it was run: as §1

[23] = test system: HCC-827
How it was run: as §1

[24] = test system: HCC-366
How it was run: as §1

Question: Which relative viability ([1]; first compound 0.04 µM) does the source give for `C[C@@H]1CN(CC(=O)Nc2ccc3c(c2)Cc2cccc(-c4cc(=O)cc(N5CCOCC5)o4)c2S3)C[C@H](C)O1` + Nc1nc2[nH]cc(CCc3ccc(C(=O)N[C@@H](CCC(=O)O)C(=O)O)cc3)c2c(=O)[nH]1 [Pemetrexed] (partner 0.2 µM) here?
Answer: 0.333

Question: What about the relative viability ([1]; first compound 0.1265 µM) of the same molecule?
Answer: 0.351

Question: What about the relative viability ([1]; first compound 0.4 µM) of the same molecule?
Answer: 0.34

Question: What about the relative viability ([1]; first compound 4 µM) of the same molecule?
Answer: 0.226

Question: And the relative viability ([2]; first compound 0.04 µM)?
Answer: 0.266

Question: And the relative viability ([2]; first compound 0.1265 µM)?
Answer: 0.286

Question: And the relative viability ([2]; first compound 0.4 µM)?
Answer: 0.259

Question: And the relative viability ([2]; first compound 4 µM)?
Answer: 0.26

Question: What about the relative viability ([3]; first compound 0.04 µM) of the same molecule?
Answer: 0.72

Question: And the relative viability ([3]; first compound 0.1265 µM)?
Answer: 0.766

Question: And the relative viability ([3]; first compound 0.4 µM)?
Answer: 0.719

Question: What about the relative viability ([3]; first compound 4 µM) of the same molecule?
Answer: 0.591

Question: And the relative viability ([4]; first compound 0.04 µM)?
Answer: 1.06

Question: What about the relative viability ([4]; first compound 0.1265 µM) of the same molecule?
Answer: 0.968

Question: And the relative viability ([4]; first compound 0.4 µM)?
Answer: 1.05

Question: And the relative viability ([4]; first compound 4 µM)?
Answer: 0.849

Question: And the relative viability ([5]; first compound 0.04 µM)?
Answer: 0.424

Question: And the relative viability ([5]; first compound 0.1265 µM)?
Answer: 0.405

Question: What about the relative viability ([5]; first compound 0.4 µM) of the same molecule?
Answer: 0.386

Question: What about the relative viability ([5]; first compound 4 µM) of the same molecule?
Answer: 0.398

Question: What about the relative viability ([6]; first compound 0.04 µM) of the same molecule?
Answer: 0.376

Question: And the relative viability ([6]; first compound 0.1265 µM)?
Answer: 0.42

Question: What about the relative viability ([6]; first compound 0.4 µM) of the same molecule?
Answer: 0.31

Question: What about the relative viability ([6]; first compound 4 µM) of the same molecule?
Answer: 0.369

Question: And the relative viability ([7]; first compound 0.04 µM)?
Answer: 0.548

Question: What about the relative viability ([7]; first compound 0.1265 µM) of the same molecule?
Answer: 0.535

Question: What about the relative viability ([7]; first compound 0.4 µM) of the same molecule?
Answer: 0.429

Question: What about the relative viability ([7]; first compound 4 µM) of the same molecule?
Answer: 0.481

Question: And the relative viability ([8]; first compound 0.04 µM)?
Answer: 0.745

Question: What about the relative viability ([8]; first compound 0.1265 µM) of the same molecule?
Answer: 0.777

Question: What about the relative viability ([8]; first compound 0.4 µM) of the same molecule?
Answer: 0.767

Question: And the relative viability ([8]; first compound 4 µM)?
Answer: 0.729

Question: And the relative viability ([9]; first compound 0.04 µM)?
Answer: 1.11

Question: What about the relative viability ([9]; first compound 0.1265 µM) of the same molecule?
Answer: 1.01

Question: What about the relative viability ([9]; first compound 0.4 µM) of the same molecule?
Answer: 1.04

Question: What about the relative viability ([9]; first compound 4 µM) of the same molecule?
Answer: 1.03

Question: And the relative viability ([10]; first compound 0.04 µM)?
Answer: 0.287

Question: And the relative viability ([10]; first compound 0.1265 µM)?
Answer: 0.24

Question: And the relative viability ([10]; first compound 0.4 µM)?
Answer: 0.192

Question: And the relative viability ([10]; first compound 4 µM)?
Answer: 0.214

Question: And the relative viability ([11]; first compound 0.04 µM)?
Answer: 0.19

Question: And the relative viability ([11]; first compound 0.1265 µM)?
Answer: 0.154

Question: What about the relative viability ([11]; first compound 0.4 µM) of the same molecule?
Answer: 0.102

Question: And the relative viability ([11]; first compound 4 µM)?
Answer: 0.155

Question: And the relative viability ([12]; first compound 0.04 µM)?
Answer: 0.676

Question: What about the relative viability ([12]; first compound 0.1265 µM) of the same molecule?
Answer: 0.668

Question: What about the relative viability ([12]; first compound 0.4 µM) of the same molecule?
Answer: 0.677

Question: And the relative viability ([12]; first compound 4 µM)?
Answer: 0.621

Question: What about the relative viability ([13]; first compound 0.04 µM) of the same molecule?
Answer: 0.339

Question: What about the relative viability ([13]; first compound 0.1265 µM) of the same molecule?
Answer: 0.367

Question: What about the relative viability ([13]; first compound 0.4 µM) of the same molecule?
Answer: 0.36

Question: What about the relative viability ([13]; first compound 4 µM) of the same molecule?
Answer: 0.329

Question: What about the relative viability ([14]; first compound 0.1265 µM) of the same molecule?
Answer: 0.833

Question: And the relative viability ([14]; first compound 0.4 µM)?
Answer: 0.749

Question: What about the relative viability ([14]; first compound 4 µM) of the same molecule?
Answer: 1.08

Question: And the relative viability ([15]; first compound 0.04 µM)?
Answer: 0.941

Question: And the relative viability ([15]; first compound 0.1265 µM)?
Answer: 1.04

Question: What about the relative viability ([15]; first compound 0.4 µM) of the same molecule?
Answer: 0.959

Question: What about the relative viability ([15]; first compound 4 µM) of the same molecule?
Answer: 0.997

Question: And the relative viability ([16]; first compound 0.04 µM)?
Answer: 0.633

Question: And the relative viability ([16]; first compound 0.1265 µM)?
Answer: 0.713

Question: And the relative viability ([16]; first compound 0.4 µM)?
Answer: 0.749

Question: And the relative viability ([16]; first compound 4 µM)?
Answer: 0.648

Question: What about the relative viability ([17]; first compound 0.04 µM) of the same molecule?
Answer: 1.01

Question: What about the relative viability ([17]; first compound 0.1265 µM) of the same molecule?
Answer: 0.9

Question: What about the relative viability ([17]; first compound 0.4 µM) of the same molecule?
Answer: 0.808

Question: What about the relative viability ([17]; first compound 4 µM) of the same molecule?
Answer: 0.808

Question: What about the relative viability ([18]; first compound 0.04 µM) of the same molecule?
Answer: 1.08

Question: And the relative viability ([18]; first compound 0.1265 µM)?
Answer: 0.933

Question: And the relative viability ([18]; first compound 0.4 µM)?
Answer: 1.01

Question: What about the relative viability ([18]; first compound 4 µM) of the same molecule?
Answer: 0.756

Question: And the relative viability ([19]; first compound 0.04 µM)?
Answer: 0.272

Question: And the relative viability ([19]; first compound 0.1265 µM)?
Answer: 0.248

Question: And the relative viability ([19]; first compound 0.4 µM)?
Answer: 0.291

Question: What about the relative viability ([19]; first compound 4 µM) of the same molecule?
Answer: 0.249

Question: What about the relative viability ([20]; first compound 0.04 µM) of the same molecule?
Answer: 0.402

Question: What about the relative viability ([20]; first compound 0.1265 µM) of the same molecule?
Answer: 0.338

Question: And the relative viability ([20]; first compound 0.4 µM)?
Answer: 0.336

Question: And the relative viability ([20]; first compound 4 µM)?
Answer: 0.335

Question: What about the relative viability ([21]; first compound 0.04 µM) of the same molecule?
Answer: 0.969

Question: What about the relative viability ([21]; first compound 0.1265 µM) of the same molecule?
Answer: 0.904

Question: What about the relative viability ([21]; first compound 0.4 µM) of the same molecule?
Answer: 0.899

Question: What about the relative viability ([21]; first compound 4 µM) of the same molecule?
Answer: 0.894

Question: And the relative viability ([22]; first compound 0.04 µM)?
Answer: 0.639

Question: What about the relative viability ([22]; first compound 0.1265 µM) of the same molecule?
Answer: 0.644

Question: And the relative viability ([22]; first compound 0.4 µM)?
Answer: 0.639

Question: What about the relative viability ([22]; first compound 4 µM) of the same molecule?
Answer: 0.63

Question: What about the relative viability ([23]; first compound 0.04 µM) of the same molecule?
Answer: 0.253

Question: And the relative viability ([23]; first compound 0.1265 µM)?
Answer: 0.247

Question: And the relative viability ([23]; first compound 0.4 µM)?
Answer: 0.247

Question: And the relative viability ([23]; first compound 4 µM)?
Answer: 0.3

Question: And the relative viability ([24]; first compound 0.04 µM)?
Answer: 0.151

Question: And the relative viability ([24]; first compound 0.1265 µM)?
Answer: 0.162

Question: What about the relative viability ([24]; first compound 0.4 µM) of the same molecule?
Answer: 0.212

Question: What about the relative viability ([24]; first compound 4 µM) of the same molecule?
Answer: 0.152
